What was measured:
Settings in all cases: incubation time: 72 h
SK-BR-3 [1] = assay: normalised viability (% of control), CellTiter-Blue; higher = more viable cells (100 = DMSO, 0 = benzethonium chloride kill control)
Summary of the method: (§1)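 Vehicle (100) and a positive kill control (0) anchored the normalisation of each plate, and Z'-factor was used for quality control. Breast cancer cell lines in 20 µl suspension were incubated 72 h over compound in 5 µl medium in 384-well plates, followed by CellTiter-Blue at 560/590 nm. The value is normalised viability at a single listed concentration of the series.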

Hs578T [2] = assay: as above
Summary of the method: as §1

BT-474 [3] = assay: as above
Summary of the method: as §1

MDA-MB-468 [4] = assay: as above
Summary of the method: as §1

CAL-120 [5] = assay: as above
Summary of the method: as §1

MDA-MB-436 [6] = assay: as above
Summary of the method: as §1

CAL-148 [7] = assay: as above
Summary of the method: as §1

CAL-85-1 [8] = assay: as above
Summary of the method: as §1

HCC1599 [9] = assay: as above
Summary of the method: as §1

HCC1143 [10] = assay: as above
Summary of the method: as §1

MDA-MB-231 [11] = assay: as above
Summary of the method: as §1

BT-549 [12] = assay: as above
Summary of the method: as §1

HDQ-P1 [13] = assay: as above
Summary of the method: as §1

MFM-223 [14] = assay: as above
Summary of the method: as §1

CAL-51 [15] = assay: as above
Summary of the method: as §1

HCC1937 [16] = assay: as above
Summary of the method: as §1

DU-4475 [17] = assay: as above
Summary of the method: as §1

MDA-MB-453 [18] = assay: as above
Summary of the method: as §1

SK-BR-3 [19] = assay: normalised response (% of control), CellTiter-Glo; higher = more viable cells (100 = DMSO, 0 = benzethonium chloride kill control)
Summary of the method: (§2)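 Every value is a normalised signal taken at one concentration of a dilution series. Compound was placed in 384-well plates at 5 concentrations in 10-fold steps over a compound-specific 10,000-fold range, and 20 µl of breast cancer cell suspension was seeded onto it. After 72 h, CellTox Green fluorescence (485/520 nm) was measured first and CellTiter-Glo luminescence second, following 10 min at room temperature. Each plate was scaled to 0.1 % DMSO (100) and a positive kill control (0).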

Hs578T [20] = assay: as above
Summary of the method: as §2

BT-474 [21] = assay: as above
Summary of the method: as §2

MDA-MB-468 [22] = assay: as above
Summary of the method: as §2

CAL-120 [23] = assay: as above
Summary of the method: as §2

MDA-MB-436 [24] = assay: as above
Summary of the method: as §2

CAL-148 [25] = assay: as above
Summary of the method: as §2

CAL-85-1 [26] = assay: as above
Summary of the method: as §2

HCC1599 [27] = assay: as above
Summary of the method: as §2

HCC1143 [28] = assay: as above
Summary of the method: as §2

MDA-MB-231 [29] = assay: as above
Summary of the method: as §2

BT-549 [30] = assay: as above
Summary of the method: as §2

HDQ-P1 [31] = assay: as above
Summary of the method: as §2

MCF-10A = assay: as above
Summary of the method: as §2

MFM-223 [32] = assay: as above
Summary of the method: as §2

CAL-51 [33] = assay: as above
Summary of the method: as §2

HCC1937 [34] = assay: as above
Summary of the method: as §2

DU-4475 [35] = assay: as above
Summary of the method: as §2

MDA-MB-453 [36] = assay: as above
Summary of the method: as §2

## CC(C)C(=O)Nc1ccc([N+](=O)[O-])c(C(F)(F)F)c1 [Flutamide] (1 nM)
SK-BR-3 [1]
  normalised viability: 98.1%
Hs578T [2]
  normalised viability: 134%
BT-474 [3]
  normalised viability: 96.8%
MDA-MB-468 [4]
  normalised viability: 96.1%
CAL-120 [5]
  normalised viability: 93.6%
MDA-MB-436 [6]
  normalised viability: 94.7%
CAL-148 [7]
  normalised viability: 114%
CAL-85-1 [8]
  normalised viability: 96.8%
HCC1599 [9]
  normalised viability: 119%
HCC1143 [10]
  normalised viability: 90.7%
MDA-MB-231 [11]
  normalised viability: 90.2%
BT-549 [12]
  normalised viability: 86.2%
HDQ-P1 [13]
  normalised viability: 118%
MFM-223 [14]
  normalised viability: 90.4%
CAL-51 [15]
  normalised viability: 109%
HCC1937 [16]
  normalised viability: 65.1%
DU-4475 [17]
  normalised viability: 100%
MDA-MB-453 [18]
  normalised viability: 104%
SK-BR-3 [19]
  normalised response: 105%
Hs578T [20]
  normalised response: 98.2%
BT-474 [21]
  normalised response: 98.5%
MDA-MB-468 [22]
  normalised response: 96%
CAL-120 [23]
  normalised response: 103%
MDA-MB-436 [24]
  normalised response: 103%
CAL-148 [25]
  normalised response: 96.8%
CAL-85-1 [26]
  normalised response: 96.7%
HCC1599 [27]
  normalised response: 97.4%
HCC1143 [28]
  normalised response: 93.2%
MDA-MB-231 [29]
  normalised response: 99%
BT-549 [30]
  normalised response: 98.5%
HDQ-P1 [31]
  normalised response: 101%
MCF-10A
  normalised response: 103%
MFM-223 [32]
  normalised response: 98.4%
CAL-51 [33]
  normalised response: 113%
HCC1937 [34]
  normalised response: 94.7%
DU-4475 [35]
  normalised response: 97%
MDA-MB-453 [36]
  normalised response: 113%

## COc1cc2c(Oc3ccc(NC(=O)C4(C(=O)Nc5ccc(F)cc5)CC4)cc3F)ccnc2cc1OCCCN1CCOCC1 [Foretinib] (0.1 nM)
SK-BR-3 [1]
  normalised viability: 89%
Hs578T [2]
  normalised viability: 110%
BT-474 [3]
  normalised viability: 99.9%
MDA-MB-468 [4]
  normalised viability: 101%
CAL-120 [5]
  normalised viability: 92.1%
MDA-MB-436 [6]
  normalised viability: 95.8%
CAL-148 [7]
  normalised viability: 107%
CAL-85-1 [8]
  normalised viability: 90.2%
HCC1599 [9]
  normalised viability: 98.9%
HCC1143 [10]
  normalised viability: 100%
MDA-MB-231 [11]
  normalised viability: 102%
BT-549 [12]
  normalised viability: 94.6%
HDQ-P1 [13]
  normalised viability: 75.8%
MFM-223 [14]
  normalised viability: 97%
CAL-51 [15]
  normalised viability: 91.8%
HCC1937 [16]
  normalised viability: 101%
DU-4475 [17]
  normalised viability: 100%
MDA-MB-453 [18]
  normalised viability: 95%
SK-BR-3 [19]
  normalised response: 107%
Hs578T [20]
  normalised response: 89.5%
BT-474 [21]
  normalised response: 105%
MDA-MB-468 [22]
  normalised response: 108%
CAL-120 [23]
  normalised response: 100%
MDA-MB-436 [24]
  normalised response: 107%
CAL-148 [25]
  normalised response: 109%
CAL-85-1 [26]
  normalised response: 100%
HCC1599 [27]
  normalised response: 93.4%
HCC1143 [28]
  normalised response: 99%
MDA-MB-231 [29]
  normalised response: 99.7%
BT-549 [30]
  normalised response: 104%
HDQ-P1 [31]
  normalised response: 105%
MCF-10A
  normalised response: 97.2%
MFM-223 [32]
  normalised response: 102%
CAL-51 [33]
  normalised response: 74.1%
HCC1937 [34]
  normalised response: 99.2%
DU-4475 [35]
  normalised response: 102%
MDA-MB-453 [36]
  normalised response: 109%

## NC(=O)NO [Hydroxyurea] (10 nM)
SK-BR-3 [1]
  normalised viability: 52%
Hs578T [2]
  normalised viability: 107%
BT-474 [3]
  normalised viability: 97.2%
MDA-MB-468 [4]
  normalised viability: 112%
CAL-120 [5]
  normalised viability: 98.9%
MDA-MB-436 [6]
  normalised viability: 109%
CAL-148 [7]
  normalised viability: 107%
CAL-85-1 [8]
  normalised viability: 109%
HCC1599 [9]
  normalised viability: 113%
HCC1143 [10]
  normalised viability: 102%
MDA-MB-231 [11]
  normalised viability: 101%
BT-549 [12]
  normalised viability: 99.2%
HDQ-P1 [13]
  normalised viability: 116%
MFM-223 [14]
  normalised viability: 104%
CAL-51 [15]
  normalised viability: 100%
HCC1937 [16]
  normalised viability: 95.8%
DU-4475 [17]
  normalised viability: 123%
MDA-MB-453 [18]
  normalised viability: 105%
SK-BR-3 [19]
  normalised response: 113%
Hs578T [20]
  normalised response: 101%
BT-474 [21]
  normalised response: 98.6%
MDA-MB-468 [22]
  normalised response: 103%
CAL-120 [23]
  normalised response: 96.7%
MDA-MB-436 [24]
  normalised response: 90.1%
CAL-148 [25]
  normalised response: 101%
CAL-85-1 [26]
  normalised response: 98.5%
HCC1599 [27]
  normalised response: 101%
HCC1143 [28]
  normalised response: 104%
MDA-MB-231 [29]
  normalised response: 98.3%
BT-549 [30]
  normalised response: 108%
HDQ-P1 [31]
  normalised response: 97.3%
MCF-10A
  normalised response: 110%
MFM-223 [32]
  normalised response: 105%
CAL-51 [33]
  normalised response: 74.9%
HCC1937 [34]
  normalised response: 91.6%
DU-4475 [35]
  normalised response: 106%
MDA-MB-453 [36]
  normalised response: 110%

— the supplement of paper PMC4862054
